According to US20240255419A1, “MOLECULAR PROBES FOR MAPPING BIOLOGICAL ACTIVITY” (Trustees of Boston University, priority 2023, published 2024):

Assays:
[1] = system: alkaline phosphatase (ALP); conditions: standard substrate, identical conditions
[2] = system: SJSA-1 cells; test: induction of apoptosis for activating caspase-3/7; assay type: cell-based
Source text: Other than phosphatase, we profiled caspase-3/7 activity in live cancer cells.

[3] = system: ATP synthetase; test: cellular uptake mechanism, NBD fluorescence of NBD-Phos-CN(S); assay type: cell-based; conditions: 5 μM inhibitor, cells with NBD-Phos-CN(S)
Source text: Considering the high sensitivity and resistance to photobleaching, we conducted real-time monitoring of dephosphorylation reaction in cells by MIP imaging as Phos-CN(S) is introduced to the cells. […] The Nanoparticles formed by the amphiphilic nitrile chameleons may escape from endosomes through endosomal membrane disruption or perforation. The variation in phosphatase activity patterns at different time points is attributed to the dynamic movements of cellular structures within live cells. As previously discussed, the nanofilaments intertwine with cellular structures, causing the nanofilaments to move along with these structures. Furthermore, we utilized NBD-Phos-CN(S) to study the cellular uptake mechanism of nitrile chameleons because NBD fluorescence cannot distinguish between substrate and product.

[4] = molecular target: T1, caspase-3 (active) (Homo sapiens, UniProt P42574); test: enzymatic conversion efficiency by caspase-3 (active), time-course of product formation; assay type: biochemical; conditions: standard substrate, identical conditions
T1 sequence (P42574 29-175 limits assumed): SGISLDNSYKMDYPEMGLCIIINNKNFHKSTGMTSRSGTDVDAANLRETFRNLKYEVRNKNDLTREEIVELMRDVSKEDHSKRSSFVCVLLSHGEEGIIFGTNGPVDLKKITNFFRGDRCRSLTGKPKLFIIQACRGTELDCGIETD
T1 sequence (P42574 176-277 limits assumed): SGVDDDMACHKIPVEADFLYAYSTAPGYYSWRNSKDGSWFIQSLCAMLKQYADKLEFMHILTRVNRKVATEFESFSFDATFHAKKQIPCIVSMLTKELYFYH

Compound: O=[N+]([O-])c1ccc(OP(=O)(O)O)cc1 [P-nitrophenyl phosphate]
- initial speed (v0) [1]: 0.53 nmol/min

Compound: COc1cccc2c1C(=O)c1c(O)c3c(c(O)c1C2=O)C[C@@](O)(C(=O)CO)C[C@@H]3O[C@H]1C[C@H](N)[C@H](O)[C@H](C)O1 [Doxorubicin]
- apoptosis induction [2]: efficiently induces apoptosis

Compound: CC[C@H]1/C=C/C=C/C[C@@H](C)[C@H](O)[C@@](C)(O)C(=O)[C@@H](C)[C@H](O)[C@@H](C)C(=O)[C@@H](C)[C@H](O)[C@@H](C)/C=C/C(=O)O[C@@H]2[C@H](C)[C@H](CC1)O[C@]1(CC[C@H](C)[C@H](C[C@@H](C)O)O1)[C@H]2C [oligomycin]
- NBD fluorescence inside the cells [3]: significantly reduced

Compound: Ac-DEVD-pNA
- initial speed (v0) [4]: 0.33 nmol/min
